From ChEMBL document CHEMBL3044761, “Lethal Activity of a Trehalase Inhibitor, Validoxylamine A, against Mamestra brassicae and Spodoptera litura” (J Pestic Sci, 1994)
pIC50: −log10 of the molar value.

Assays:
Mamestra brassicae [1] = assay: Insecticidal activity against last-instar Mamestra brassicae larvae assessed as partial pupation injected at 1 ug/larvae (reference value: 10%); type: functional
Mamestra brassicae [2] = assay: Insecticidal activity against last-instar Mamestra brassicae larvae assessed as normal pupae injected at 1 ug/larvae (reference value: 90%); type: functional
Mamestra brassicae [3] = assay: Insecticidal activity against last-instar Mamestra brassicae larvae assessed as larval-pupal intermediate injected at 1 ug/larvae (reference value: 0%); type: functional
Spodoptera litura [4] = assay: Insecticidal activity against last-instar Spodoptera litura larvae assessed as partial pupation injected at 2 ug/larvae (reference value: 100%); type: functional
Spodoptera litura [5] = assay: Insecticidal activity against last-instar Spodoptera litura larvae assessed as partial pupation at 50 ug/larvae topical application (reference value: […]); type: functional
Mamestra brassicae [6] = assay: Insecticidal activity against last-instar Mamestra brassicae larvae assessed as wing pad separation at 50 ug/larvae oral administration (reference value: 0%); type: functional
Mamestra brassicae [7] = assay: Insecticidal activity against last-instar Mamestra brassicae larvae assessed as normal pupae at 50 ug/larvae oral administration (reference value: 90%); type: functional
Spodoptera litura [8] = assay: Insecticidal activity against last-instar Spodoptera litura larvae assessed as wing pad separation injected at 10 ug/larvae (reference value: 100%); type: functional
Spodoptera litura [9] = assay: Insecticidal activity against last-instar Spodoptera litura larvae assessed as wing pad separation injected at 0.4 ug/larvae (reference value: 100%); type: functional
Mamestra brassicae [10] = assay: Insecticidal activity against last-instar Mamestra brassicae larvae assessed as partial pupation at 50 ug/larvae oral administration (reference value: 10%); type: functional
Spodoptera litura [11] = assay: Insecticidal activity against last-instar Spodoptera litura larvae assessed as larval pupal intermediate at 50 ug/larvae topical application (reference value: […]); type: functional
Vacuolar acid trehalase = biological target: T1, Vacuolar acid trehalase (Saccharomyces cerevisiae (strain ATCC 204508 / S288c) (Baker's yeast), UniProt P48016); assay: Inhibition of Saccharomyces cerevisiae trehalase; settings: read-out: I50
T1 sequence (P48016 whole entry): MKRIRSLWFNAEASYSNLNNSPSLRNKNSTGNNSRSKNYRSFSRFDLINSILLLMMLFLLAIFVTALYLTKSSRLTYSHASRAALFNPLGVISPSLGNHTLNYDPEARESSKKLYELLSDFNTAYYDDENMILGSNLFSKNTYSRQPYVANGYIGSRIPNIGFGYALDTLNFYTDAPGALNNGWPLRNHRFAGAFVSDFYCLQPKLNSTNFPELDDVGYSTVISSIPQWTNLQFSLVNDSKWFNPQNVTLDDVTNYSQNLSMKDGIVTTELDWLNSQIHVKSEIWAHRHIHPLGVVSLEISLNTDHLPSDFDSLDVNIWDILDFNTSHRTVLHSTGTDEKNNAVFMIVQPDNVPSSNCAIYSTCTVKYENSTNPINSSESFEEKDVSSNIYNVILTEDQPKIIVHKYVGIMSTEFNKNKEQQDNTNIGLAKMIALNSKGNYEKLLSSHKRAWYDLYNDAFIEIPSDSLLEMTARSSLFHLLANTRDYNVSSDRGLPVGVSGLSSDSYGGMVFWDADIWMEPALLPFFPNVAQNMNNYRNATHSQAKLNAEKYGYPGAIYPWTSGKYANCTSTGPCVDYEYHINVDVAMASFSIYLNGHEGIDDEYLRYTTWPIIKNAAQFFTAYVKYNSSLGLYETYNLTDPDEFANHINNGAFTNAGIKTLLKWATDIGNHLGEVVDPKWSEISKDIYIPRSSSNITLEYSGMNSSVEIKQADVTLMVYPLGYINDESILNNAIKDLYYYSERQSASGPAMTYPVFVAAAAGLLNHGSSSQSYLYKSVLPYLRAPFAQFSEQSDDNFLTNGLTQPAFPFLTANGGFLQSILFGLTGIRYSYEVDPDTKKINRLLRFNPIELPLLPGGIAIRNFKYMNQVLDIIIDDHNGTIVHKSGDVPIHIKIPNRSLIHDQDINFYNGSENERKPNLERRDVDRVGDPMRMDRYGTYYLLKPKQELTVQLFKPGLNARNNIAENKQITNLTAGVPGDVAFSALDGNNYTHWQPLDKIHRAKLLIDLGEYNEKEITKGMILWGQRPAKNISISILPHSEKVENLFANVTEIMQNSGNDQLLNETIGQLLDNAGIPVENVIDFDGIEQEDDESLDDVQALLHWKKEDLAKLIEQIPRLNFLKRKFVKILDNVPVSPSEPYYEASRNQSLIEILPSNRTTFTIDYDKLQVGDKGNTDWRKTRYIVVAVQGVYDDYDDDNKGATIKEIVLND

Mamestra brassicae [12] = assay: Insecticidal activity against last-instar Mamestra brassicae larvae assessed as partial pupation at 50 ug/larvae topical application (reference value: 10%); type: functional
Spodoptera litura [13] = assay: Insecticidal activity against last-instar Spodoptera litura larvae assessed as wing pad separation injected at 2 ug/larvae (reference value: 100%); type: functional
Mamestra brassicae [14] = assay: Insecticidal activity against last-instar Mamestra brassicae larvae assessed as larval-pupal intermediate at 50 ug/larvae oral administration (reference value: 0%); type: functional
Spodoptera litura [15] = assay: Insecticidal activity against last-instar Spodoptera litura larvae assessed as wing pad separation at 50 ug/larvae topical application (reference value: 100%); type: functional
Mamestra brassicae [16] = assay: Insecticidal activity against last-instar Mamestra brassicae larvae assessed as normal pupae injected at 50 ug/larvae (reference value: 90%); type: functional
Trehalase (Bombyx mori) [17] = biological target: T2, Trehalase (Bombyx mori) (UniProt P32358); assay: Inhibition of Bombyx mori trehalase activity in arborescent region of colleterial glands at 1 ug/pupa
T2 sequence (whole entry): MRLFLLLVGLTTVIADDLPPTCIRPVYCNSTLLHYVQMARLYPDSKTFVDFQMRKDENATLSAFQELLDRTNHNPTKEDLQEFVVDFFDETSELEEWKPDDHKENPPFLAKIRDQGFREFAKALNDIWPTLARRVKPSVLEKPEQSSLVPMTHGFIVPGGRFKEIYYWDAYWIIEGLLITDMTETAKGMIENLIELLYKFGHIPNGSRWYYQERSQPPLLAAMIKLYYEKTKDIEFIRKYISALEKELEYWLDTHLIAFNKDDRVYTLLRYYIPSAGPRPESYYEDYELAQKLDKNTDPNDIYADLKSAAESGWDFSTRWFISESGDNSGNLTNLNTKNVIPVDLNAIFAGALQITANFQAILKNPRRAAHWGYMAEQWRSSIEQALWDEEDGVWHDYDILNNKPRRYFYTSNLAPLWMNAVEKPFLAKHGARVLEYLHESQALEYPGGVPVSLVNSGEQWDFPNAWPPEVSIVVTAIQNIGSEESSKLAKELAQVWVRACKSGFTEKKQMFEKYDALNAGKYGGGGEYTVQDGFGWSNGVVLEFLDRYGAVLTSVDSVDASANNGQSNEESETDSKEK

Mamestra brassicae [18] = assay: Insecticidal activity against last-instar Mamestra brassicae larvae assessed as wing pad separation injected at 5 ug/larvae (reference value: 0%); type: functional
[19] = Inhibition of Rhizoctonia solani beta-glucosidase; settings: read-out: I50
Mamestra brassicae [20] = assay: Insecticidal activity against last-instar Mamestra brassicae larvae assessed as wing pad separation injected at 10 ug/larvae (reference value: 0%); type: functional
Trehalase (Bombyx mori) [21] = biological target: T2, Trehalase (Bombyx mori); assay: Inhibition of Bombyx mori trehalase activity in total ovaries at 10 ug/pupa; settings: Female gonad

In the case of `OCC1=C[C@H](N[C@H]2C[C@H](CO)[C@@H](O)[C@H](O)[C@H]2O)[C@H](O)[C@@H](O)[C@@H]1O` [VALIDOXYLAMINE A], the Activity (Mamestra brassicae [1]) was 27%, the Activity (Mamestra brassicae [2]) was 27% and the Activity (Mamestra brassicae [3]) was 27%. The Activity (Spodoptera litura [4]) was 20%, the Activity (Spodoptera litura [5]) was 5% and the Activity (Mamestra brassicae [6]) was 10%. The Activity (Mamestra brassicae [7]) was 90%, the Activity (Spodoptera litura [8]) was 15% and the Activity (Spodoptera litura [9]) was 5%. The Activity (Mamestra brassicae [10]) was 0%, the Activity (Spodoptera litura [11]) was 5% and the pIC50 (Vacuolar acid trehalase) was 8.52. It also gave an Activity (Mamestra brassicae [12]) of 40%, an Activity (Spodoptera litura [13]) of 5% and an Activity (Mamestra brassicae [14]) of 0%. The Activity (Spodoptera litura [15]) was 5%, the Activity (Mamestra brassicae [16]) was 0% and the inhibition (Trehalase (Bombyx mori) [17]) was 78%. It also gave an Activity (Mamestra brassicae [18]) of 7%, a pIC50 [19] of under 3.00 and an Activity (Mamestra brassicae [20]) of 7%. For the same compound, the inhibition (Trehalase (Bombyx mori) [21]) was 78%.
